Source: patent US20250215029A1 (Recludix Pharma, Inc., priority 2022, published 2025)
pIC50: −log10 of the molar value.

What follows are molecules tested against T1, pY641-STAT6 in PBMC (Homo sapiens, UniProt P42226) (assay: MSD-pSTAT-PBMC Assay (pSTAT6, IL-4 stimulated)). Conditions: STAT6, PBMC, compound 3 hrs, then 1 ng/mL IL-4 for 10 min; Table 115.
T1 construct: Cryopreserved Peripheral Blood Mononuclear Cells (PBMC) are from AllCells; host or cells: cryopreserved PBMC
T1 sequence (P42226 1-847): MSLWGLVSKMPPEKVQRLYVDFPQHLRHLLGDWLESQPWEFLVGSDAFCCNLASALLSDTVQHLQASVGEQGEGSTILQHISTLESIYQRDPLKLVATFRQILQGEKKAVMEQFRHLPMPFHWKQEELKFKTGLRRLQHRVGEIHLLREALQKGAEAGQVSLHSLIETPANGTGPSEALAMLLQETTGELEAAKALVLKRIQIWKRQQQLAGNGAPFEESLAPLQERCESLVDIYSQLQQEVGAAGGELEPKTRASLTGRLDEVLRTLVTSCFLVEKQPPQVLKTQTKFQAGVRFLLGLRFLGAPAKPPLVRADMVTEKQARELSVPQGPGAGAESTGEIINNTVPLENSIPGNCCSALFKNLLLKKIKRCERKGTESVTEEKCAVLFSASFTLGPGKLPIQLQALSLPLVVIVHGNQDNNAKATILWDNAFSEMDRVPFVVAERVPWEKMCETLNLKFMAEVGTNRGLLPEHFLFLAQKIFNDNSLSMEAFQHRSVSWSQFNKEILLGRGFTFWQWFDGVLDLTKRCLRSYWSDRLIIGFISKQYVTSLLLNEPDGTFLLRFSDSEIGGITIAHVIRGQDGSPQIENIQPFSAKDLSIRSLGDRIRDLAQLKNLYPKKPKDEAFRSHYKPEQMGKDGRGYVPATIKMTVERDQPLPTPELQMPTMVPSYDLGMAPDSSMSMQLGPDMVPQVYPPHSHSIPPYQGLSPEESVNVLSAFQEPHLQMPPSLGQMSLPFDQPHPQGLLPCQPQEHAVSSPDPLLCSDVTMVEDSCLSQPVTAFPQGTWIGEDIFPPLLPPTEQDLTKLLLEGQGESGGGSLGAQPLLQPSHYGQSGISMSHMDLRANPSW
Type: cell-based
Summary of the method: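 MSD electrochemiluminescence read-out: total STAT captured, probed with anti-pY641-STAT6 or anti-pY705-STAT3. Human PBMC, 3 h compound pretreatment, 10 min stimulation (IL-4 1 ng/mL or IL-6 10 ng/mL). Unstimulated signal subtracted, DMSO-normalized, variable-slope IC50.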

First: CCCOC(=O)[C@H](C)NP(=O)(Cc1ccc2sc(C(=O)N[C@H]3CCC[C@H]4CC[C@@H](C(=O)N5C[C@@H](c6ccccc6)[C@H](C#N)C56CC6)N4C3=O)cc2c1)Oc1ccccc1 (stereo partly drawn) [Compound 486, propyl (((2-(((3S,6S,9aS)-3-((6R,7S)-7-cyano-6-phenyl-4-azaspiro[2.4]heptane-4-carbonyl)-5-oxooctahydro-1H-pyrrolo[1,2-a]azepin-6-yl)carbamoyl)benzo [b]thiophen-5-yl)methyl)(phenoxy)phosphoryl)-L-alaninate]
Second: CCCOC(=O)[C@H](C)NP(=O)(Oc1ccccc1)[C@@H](F)c1ccc2sc(C(=O)N[C@H]3CC[C@H](N4CCC4)C[C@H]4CC[C@@H](C(=O)N5C[C@@H](c6ccccc6)[C@H](C#N)C56CC6)N4C3=O)cc2c1 (stereo partly drawn) [Compound 489, propyl (((R)-(2-(((3S,6S,9S,10aR)-9-(azetidin-1-yl)-3-((6R,7S)-7-cyano-6-phenyl-4-azaspiro[2.4]heptane-4-carbonyl)-5-oxodecahydropyrrolo [1,2-a]azocin-6-yl)carbamoyl)benzo [b]thiophen-5-yl)fluoromethyl) (phenoxy)phosphoryl)-L-alaninate]
The pIC50 of the first is higher: over 7.00 for the first, 6.00 to 7.00 for the second.

`CCCOC(=O)[C@@H]1CCCN1P(=O)(Oc1ccccc1)[C@H](F)c1ccc2sc(C(=O)N[C@H]3CCC[C@H]4CC[C@@H](C(=O)N5C[C@H](c6ccccc6)[C@@H](C#N)C56CC6)N4C3=O)cc2c1` (stereo partly drawn) [Compound 487, propyl (((S)-(2-(((3S,6S,9aS)-3-((6S,7R)-7-cyano-6-phenyl-4-azaspiro[2.4]heptane-4-carbonyl)-5-oxooctahydro-1H-pyrrolo[1,2-a]azepin-6-yl)carbamoyl)benzo [b]thiophen-5-yl)fluoromethyl) (phenoxy)phosphoryl)-L-prolinate] and `CCCOC(=O)[C@@H]1CCN1P(=O)(Oc1ccccc1)[C@H](F)c1ccc2sc(C(=O)N[C@H]3CCC[C@H]4CC[C@@H](C(=O)N5C[C@H](c6ccccc6)[C@@H](C#N)C56CC6)N4C3=O)cc2c1` (stereo partly drawn) [Compound 488, propyl (2S)-1-(((S)-(2-(((3S,6S,9aS)-3-((6S,7R)-7-cyano-6-phenyl-4-azaspiro[2.4]heptane-4-carbonyl)-5-oxooctahydro-1H-pyrrolo[1,2-a]azepin-6-yl)carbamoyl)benzo [b]thiophen-5-yl)fluoromethyl) (phenoxy)phosphoryl) azetidine-2-carboxylate] fall in the same range of pIC50: 5.52 to 6.00 for the first, 5.52 to 6.00 for the second.

First: CCCOC(=O)[C@H](C)NP(=O)(Oc1ccccc1)[C@@H](F)c1ccc2sc(C(=O)N[C@H]3CC[C@H](N4CCC4)C[C@H]4CC[C@@H](C(=O)N5C[C@H](c6ccccc6)[C@@H](C#N)C56CC6)N4C3=O)cc2c1 (stereo partly drawn) [Compound 490, propyl (((R)-(2-(((3S,6S,9S,10aR)-9-(azetidin-1-yl)-3-((6S,7R)-7-cyano-6-phenyl-4-azaspiro[2.4]heptane-4-carbonyl)-5-oxodecahydropyrrolo [1,2-a]azocin-6-yl)carbamoyl)benzo [b]thiophen-5-yl)fluoromethyl) (phenoxy)phosphoryl)-L-alaninate]
Second: CCCOC(=O)[C@H](C)NP(=O)(Oc1ccccc1)[C@H](F)c1ccc2sc(C(=O)N[C@H]3CC[C@H](N4CCC4)C[C@H]4CC[C@@H](C(=O)N5C[C@H](c6ccccc6)[C@@H](C#N)C56CC6)N4C3=O)cc2c1 (stereo partly drawn) [Compound 491, propyl (((S)-(2-(((3S,6S,9S,10aR)-9-(azetidin-1-yl)-3-((6S,7R)-7-cyano-6-phenyl-4-azaspiro[2.4]heptane-4-carbonyl)-5-oxodecahydropyrrolo [1,2-a]azocin-6-yl)carbamoyl)benzo [b]thiophen-5-yl)fluoromethyl) (phenoxy)phosphoryl)-L-alaninate]
The pIC50 of the first is lower: 6.00 to 7.00 for the first, over 7.00 for the second.
